From ChEMBL document CHEMBL5537154, “Smart glypican-3-targeting peptide-chlorin e6 conjugates for targeted photodynamic therapy of hepatocellular carcinoma” (Eur J Med Chem, 2024)
The source made the active and inactive calls. The rule behind the calls is not given here. Peptide text beside a SMILES is read from it.

Columns and labels:
[1] = Aggregation property of compound in PBS; format: physicochemical; settings: buffer
HepG2 [2] = assay: Induction of ROS generation in human HepG2 cells at 10 uM incubated for 24 hrs by DCFH-DA probe based flow cytometry; format: functional, cell-based
[3] = Toxicity in BALB/C nude mouse model xenografted with human HepG2 cells assessed as change in liver weight at 1 to 2 uM/kg, iv administered every two days for 21 days along with 250 mW/cm2 light irradiation at 660 nm for 10 mins at 1 hr post-compound administration; format: organism-based; settings: in vivo, 505.17 h, dose 1-2 µM/Kg, time 505.166 hrs
HepG2 [4] = assay: Antiproliferative activity against human HepG2 cells under dark condition by CCK8 assay; format: functional, cell-based
HepG2 [5] = assay: Induction of apoptosis in human HepG2 cells assessed as early apoptotic cells at 5 uM incubated for 24 hrs followed by 10 J/cm2 of light irradiation at 660 nm measured after 24 hrs by Annexin V-FITC/PI staining based flow cytometry relative to control; format: functional; settings: time 48 hrs
[6] = Drug uptake in human HUVEC cells at 500 nM incubated for 0.5 hrs by flow cytometry; format: ADME, cell-based; settings: 0.5 µM
[7] = Toxicity in BALB/C nude mouse model xenografted with human HepG2 cells assessed as drug tolerance at 1 to 2 uM/kg, iv administered every two days for 21 days along with 250 mW/cm2 light irradiation at 660 nm for 10 mins at 1 hr post-compound administration; format: organism-based; settings: in vivo, 505.17 h, dose 1-2 µM/Kg, time 505.166 hrs
HepG2 [8] = assay: Induction of apoptosis in human HepG2 cells assessed as necrotic cells under dark condition at 5 uM incubated for 24 hrs by Annexin V-FITC/PI staining based flow cytometry relative to control; format: functional
[9] = Toxicity in BALB/C nude mouse model xenografted with human HepG2 cells assessed as damage in spleen at 1 to 2 uM/kg, iv administered every two days for 21 days along with 250 mW/cm2 light irradiation at 660 nm for 10 mins at 1 hr post-compound administration by H and E staining based analysis; format: organism-based; settings: in vivo, 505.17 h, dose 1-2 µM/Kg, time 505.166 hrs
chymotrypsin = chymotrypsin (Homo sapiens, UniProt P17538+P40313+Q6GPI1+Q99895); assay: Stability of compound assessed as chymotrypsin (unknown origin)-mediated compound degradation in PBS at pH 7.4 by measuring half life; format: ADME, protein assay
[10] = Drug uptake in endoplasmic reticulum of human HepG2 cells assessed as pearsons co-efficient of ER tracker green-yellow signal at 2 uM incubated for 24 hrs by laser confocal microscopy; format: ADME, subcellular; settings: hepg2, 24 h
[11] = Toxicity in BALB/C nude mouse model xenografted with human HepG2 cells assessed as damage in heart at 1 to 2 uM/kg, iv administered every two days for 21 days along with 250 mW/cm2 light irradiation at 660 nm for 10 mins at 1 hr post-compound administration by H and E staining based analysis; format: organism-based; settings: in vivo, 505.17 h, dose 1-2 µM/Kg, time 505.166 hrs
MCF7 = assay: Antitumor activity against human MCF7 cells xenografted in BALB/C nude mouse model assessed as decrease in tumor growth at 1 to 2 uM/kg, iv administered every two days for 21 days along with 250 mW/cm2 light irradiation at 660 nm for 10 mins at 1 hr post-compound administration; format: functional, organism-based; settings: dose 1-2 µM/Kg, time 505.166 hrs
[12] = Antiproliferative activity against human HUVEC cells under 10 J/cm2 light irradiation at 660 nm by CCK8 assay; format: toxicity, cell-based
[13] = Drug uptake in human MCF7 cells at 10 uM incubated for 4 hrs by confocal microscopy; format: ADME, cell-based; settings: mcf7, 4 h
HepG2 [14] = assay: Induction of apoptosis in human HepG2 cells assessed as early apoptotic cells at 2.5 uM incubated for 24 hrs followed by 10 J/cm2 of light irradiation at 660 nm measured after 24 hrs by Annexin V-FITC/PI staining based flow cytometry relative to control; format: functional; settings: time 48 hrs
[15] = Drug distribution in lung of BALB/C nude mouse model xenografted with human HepG2 cells at 1 to 2 uM/kg, iv measured for 1 to 4 hrs by fluorescence imaging analysis; format: ADME, organism-based; settings: in vivo, dose lower 1 µM/Kg, time lower 1 hrs, dose upper 2 µM/Kg, time upper 4 hrs
HepG2 [16] = assay: Induction of apoptosis in human HepG2 cells assessed as late apoptotic cells at 5 uM incubated for 24 hrs followed by 10 J/cm2 of light irradiation at 660 nm measured after 24 hrs by Annexin V-FITC/PI staining based flow cytometry relative to control; format: functional; settings: time 48 hrs
[17] = Drug distribution in BALB/C nude mouse model xenografted with human HepG2 cells at 1 to 2 uM/kg, iv measured after 1 hr by fluorescence imaging analysis; format: ADME, organism-based; settings: in vivo, dose 1-2 µM/Kg
[18] = Toxicity in BALB/C nude mouse model xenografted with human HepG2 cells assessed as change in heart weight at 1 to 2 uM/kg, iv administered every two days for 21 days along with 250 mW/cm2 light irradiation at 660 nm for 10 mins at 1 hr post-compound administration; format: organism-based; settings: in vivo, 505.17 h, dose 1-2 µM/Kg, time 505.166 hrs
[19] = Drug distribution in heart of BALB/C nude mouse model xenografted with human HepG2 cells at 1 to 2 uM/kg, iv measured for 1 to 4 hrs by fluorescence imaging analysis; format: ADME, organism-based; settings: in vivo, dose lower 1 µM/Kg, time lower 1 hrs, dose upper 2 µM/Kg, time upper 4 hrs
[20] = Toxicity in BALB/C nude mouse model xenografted with human HepG2 cells assessed as change in kidney weight at 1 to 2 uM/kg, iv administered every two days for 21 days along with 250 mW/cm2 light irradiation at 660 nm for 10 mins at 1 hr post-compound administration; format: organism-based; settings: in vivo, 505.17 h, dose 1-2 µM/Kg, time 505.166 hrs
HepG2 [21] = assay: Antitumor activity in human HepG2 cells xenografted in BALB/C nude mouse model assessed as tumor growth inhibition at 1 to 2 uM/kg, iv administered every two days for 21 days along with 250 mW/cm2 light irradiation at 660 nm for 10 mins at 1 hr post-compound administration relative to control; format: functional; settings: dose 1-2 µM/Kg, time 505.166 hrs, 505.17 h, at 1 to 2 µmol/kg
[22] = Drug uptake in human Huh-7 cells at 10 uM by confocal microscopy; format: ADME, cell-based; settings: huh-7, 10 µM, TDE = time-dependent effect, time 4-24 hrs
[23] = Drug distribution in kidney of BALB/C nude mouse model xenografted with human HepG2 cells at 1 to 2 uM/kg, iv measured for 1 to 4 hrs by fluorescence imaging analysis; format: ADME, organism-based; settings: in vivo, dose lower 1 µM/Kg, time lower 1 hrs, dose upper 2 µM/Kg, time upper 4 hrs
[24] = Antiproliferative activity against human HUVEC cells under dark condition by CCK8 assay; format: toxicity, cell-based
[25] = Drug uptake in endoplasmic reticulum of human Huh-7 cells at 2 uM incubated for 24 hrs by ER tracker green probe based laser confocal microscopy; format: ADME, subcellular; settings: huh-7, 24 h
Huh-7 = assay: Induction of cell cycle arrest at S phase in human Huh-7 cells at 1 uM under 10 J/cm2 light irradiation at 660 nm by flow cytometry; format: functional, cell-based
HepG2 [26] = assay: Induction of cell cycle arrest at S phase in human HepG2 cells at 1 uM by flow cytometry relative to control; format: functional
[27] = Drug uptake in human HepG2 cells at 500 nM incubated for 2 hrs by flow cytometry; format: ADME, cell-based; settings: hepg2, 2 h, 0.5 µM
HepG2 [28] = assay: Induction of apoptosis in human HepG2 cells assessed as necrotic cells under dark condition at 2.5 uM incubated for 24 hrs by Annexin V-FITC/PI staining based flow cytometry relative to control; format: functional

With `C=Cc1c(C)c2cc3nc(c(CC(=O)O)c4[nH]c(cc5nc(cc1[nH]2)C(C)=C5CC)c(C)c4C(=O)NCCCC(=O)N[C@@H](CC(=O)O)C(=O)N[C@@H](Cc1cnc[nH]1)C(=O)N[C@@H](CC(C)C)C(=O)N[C@@H](C)C(=O)N[C@@H](CO)C(=O)N[C@@H](CC(C)C)C(=O)N[C@@H](Cc1c[nH]c2ccccc12)C(=O)N[C@@H](Cc1c[nH]c2ccccc12)C(=O)NCC(=O)N[C@H](C(=O)N[C@@H](CCC(=O)O)C(=O)N[C@@H](CC(C)C)C(=O)O)[C@@H](C)O)[C@@H](CCC(=O)O)[C@@H]3C` (HELM PEPTIDE1{[C=Cc1c(C)c2cc3nc(c(CC(=O)O)c4[nH]c(cc5nc(cc1[nH]2)C(C)=C5CC)c(C)c4C(=O)[*:2])[C@@H](CCC(=O)O)[C@@H]3C].[O=C(CCCN[*:1])[*:2]].D.H.L.A.S.L.W.W.G.T.E.L}$$$$V2.0) the Activity [1] was “Active”, the Activity (HepG2 [2]) was “inactive” and the Activity [3] was “Non-Toxic”. The IC50 (HepG2 [4]) was > 100 µM, the Activity (HepG2 [5]) was 8.4% and the Drug uptake [6] was “Not Active”. For the same compound, the Activity [7] was “Non-Toxic”, the Activity (HepG2 [8]) was 0.1% and the Activity [9] was “Non-Toxic”. For the same compound, the half-life (chymotrypsin) was 456 min, the Activity [10] was 0.65 and the Activity [11] was “Non-Toxic”. The Activity (MCF7) was “Active”, the IC50 [12] was > 10 µM and the Drug uptake [13] was “Not Active”. For the same compound, the Activity (HepG2 [14]) was 0.1%, the Drug uptake [15] was “Not Active” and the Activity (HepG2 [16]) was 9.3%. For the same compound, the Drug uptake [17] was “Active”, the Activity [18] was “Non-Toxic” and the Drug uptake [19] was “Not Active”. The Activity [20] was “Non-Toxic”, the TGI (HepG2 [21]) was 100% and the Drug uptake [22] was “Tde”. For the same compound, the Drug uptake [23] was “Not Active”, the IC50 [24] was > 200 µM and the Drug uptake [25] was “Active”. For the same compound, the Activity (Huh-7) was “Active”, the Activity (HepG2 [26]) was 21.8% and the Drug uptake [27] was “Dose-Dependent Effect”. The Activity (HepG2 [28]) was 0.2%.
